Results from article PMC6838683, “Discovery of Human Signaling Systems: Pairing Peptides to G Protein-Coupled Receptors” (Cell, 2019).
Residues, ends and D or L forms follow the SMILES beside them.

How the values were obtained:
Type in all cases: cell-based
GPR55 [1] = target: T1, GPR55 (Homo sapiens, UniProt Q9Y2T6); assay: Dynamic mass redistribution (DMR), concentration-response; design: hIL-2Ra signal peptide (N); expressed in transfected cells; conditions: mean
Procedure: (§1) 48 hr prior to parallel assaying, SNAP-tagged oGPCR cells were plated (10,000 cells/well) in fibronectin-coated 384-well Epic biosensor microplates (Corning) and poly-D-lysine coated white 384-well plates (for internalization assays). SNAP- GLP-1 receptor was plated alongside orphan receptor cells as an internal assay control for internalization assays. Receptor-expression was induced with 0.1 μg/ml doxycycline.
DMR assays provide a single integrated readout of ligand-dependent cellular response, utilizing an optical biosensor in specialized microplates to detect wavelength shifts of reflected light as it passes through the biosensor and the lower portion of the cell (∼150-200 nm). As a signal pathway agnostic approach, DMR assays are well-suited to the study of GPCRs ([Fang et al., 2008], [Schröder et al., 2011]). The mass redistribution response (Δ picometer (pm)) likely reflects a number of intracellular events, including cytoskeletal rearrangement, protein trafficking and receptor internalization. Orphan receptor-expressing cells were gently washed twice with assay buffer (HBSS with 1 mM CaCl2, 1 mM MgCl2, 20 mM HEPES, 0.01% pluronic F-68, pH 7.4) containing 0.1% DMSO and cells were equilibrated for 90 min at 22°C in the EPIC Benchtop (BT) System (Corning) to establish a stable DMR signal. After 3-5 min baseline recordings, peptides (10 μM) were added in duplicate wells using an electronic 384-channel Viaflo pipette (Integra Biosciences, Switzerland) and DMR responses were measured for 60 min at 22°C. 100 nM norepinephrine was included as an internal assay control to assess the cellular DMR response via endogenously-expressed adrenoceptors in the TREx 293 cells. Real-time data were processed using the BT to column converter MS-Excel macro (Corning) and analyzed in GraphPad Prism 7.0. DMR recordings in peptide screening experiments were buffer and solvent corrected and the area under the curve (AUC) was quantified. For subsequent validation experiments, peptides were diluted in assay buffer containing 0.1% DMSO and DMR assays were performed as above. […] Data represent mean ± standard error of the mean (SEM) from at least 3 biologically independent experiments.

GPR55 [2] = target: T1, GPR55; assay: Real-time receptor internalization (TR-FRET), concentration-response; design: hIL-2Ra signal peptide (N); expressed in transfected cells
Procedure: as §1
A TR-FRET real-time internalization assay was used to examine peptide-dependent changes in orphan receptor localization as described previously ([Foster and Bräuner-Osborne, 2018]). Surface-expressed SNAP-tagged receptors were labeled with a cell-impermeable luminescent terbium cryptate (100 nM SNAP Lumi4-Tb; Cisbio, France) for 1 hr at 37°C. Cells were washed to remove excess terbium and incubated with fluorescein-O-acetic acid (100 μM; Sigma Aldrich) for 5 min at 37°C. Peptides were added as for DMR assays, and internalization responses were recorded for 60 min at 37°C using an EnVision 2104 Multimode plate reader (PerkinElmer). 100 nM GLP-1 was used as a positive control for SNAP-GLP1R internalization. Real-time internalization responses were calculated based on TR-FRET (excitation 340 nm; emission 520 nm and 615 nm), and were expressed as the ratio between donor (terbium) and acceptor (fluorescein) emission. For peptide screening analysis (both DMR and internalization assays), we calculated the area under the curve from the real-time traces. […] Validation experiments for receptor internalization were performed as above. Internalization data was processed in MS-Excel and area under the curve was used to generate concentration-response curves using GraphPad Prism 7.0. Data represent mean ± standard error of the mean (SEM) from at least 3 biologically independent experiments.

BB3 [3] = target: T2, BB3 (Homo sapiens, UniProt P32247); assay: Dynamic mass redistribution (DMR), concentration-response; conditions: receptor BB3; mean, SEM and n (3); read-out: DMR assays pEC50 (converted)
T2 construct: hIL-2Ra signal peptide (N); expressed in transfected cells
T2 sequence (P32247 2-399 limits assumed): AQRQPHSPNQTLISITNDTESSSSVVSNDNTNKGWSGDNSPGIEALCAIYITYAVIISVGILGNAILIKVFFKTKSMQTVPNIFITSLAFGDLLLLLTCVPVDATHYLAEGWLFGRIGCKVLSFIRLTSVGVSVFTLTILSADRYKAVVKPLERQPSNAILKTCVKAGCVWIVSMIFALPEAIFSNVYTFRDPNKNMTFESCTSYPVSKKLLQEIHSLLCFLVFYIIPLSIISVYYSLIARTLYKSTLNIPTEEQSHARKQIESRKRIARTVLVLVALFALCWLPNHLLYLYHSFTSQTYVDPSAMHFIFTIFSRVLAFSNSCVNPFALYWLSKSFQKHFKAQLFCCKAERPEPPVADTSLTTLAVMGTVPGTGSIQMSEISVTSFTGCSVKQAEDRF

BB3 [4] = target: T2, BB3; assay: Real-time receptor internalization (TR-FRET), concentration-response; conditions: receptor BB3; mean, SEM and n (3); read-out: Internalization assays pEC50 (converted)
BB3 [5] = target: T2, BB3; assay: IP1 accumulation (Gq/11), HTRF; conditions: receptor BB3; mean, SEM and n (2-4); read-out: IP1 accumulation assays pEC50 (converted)
GPR1 = target: T3, GPR1 (Homo sapiens, UniProt P46091); assay: β-arrestin recruitment (PathHunter); conditions: receptor GPR1; mean, SEM and n (2-3); read-out: b-arrestin recruitment assays (PathHunter) pEC50 (converted)
T3 sequence (P46091 1-355): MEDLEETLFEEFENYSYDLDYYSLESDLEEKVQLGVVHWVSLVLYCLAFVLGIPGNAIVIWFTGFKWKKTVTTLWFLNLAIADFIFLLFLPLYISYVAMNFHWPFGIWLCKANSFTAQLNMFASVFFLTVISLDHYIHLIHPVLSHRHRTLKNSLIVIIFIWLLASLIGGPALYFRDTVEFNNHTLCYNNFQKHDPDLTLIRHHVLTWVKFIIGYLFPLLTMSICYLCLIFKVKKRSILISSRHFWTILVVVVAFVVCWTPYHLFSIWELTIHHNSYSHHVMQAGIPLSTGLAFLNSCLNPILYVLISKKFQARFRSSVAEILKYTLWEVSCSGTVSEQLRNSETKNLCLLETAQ
Procedure: PathHunter eXpress Assays (DiscoverX) were performed in 384-well format according to the manufacturer’s recommendations. GPR1 cells were incubated with peptides for 90 min and luminescence measured using an EnSpire 2300 Multimode plate reader (PerkinElmer).

[6] = receptor GPR55, SEM and n (2-4), read-out: DMR assays pEC50 (converted)
[7] = receptor GPR55, mean, SEM and n (3-4), read-out: Internalization assays pEC50 (converted)
[8] = GPR55, SEM and n, read-out: pEC50, DMR (AUC) (converted)
[9] = GPR55, mean, SEM and n, read-out: pEC50, Internalization (AUC) (converted)

T1 sequence (Q9Y2T6 2-319 limits assumed): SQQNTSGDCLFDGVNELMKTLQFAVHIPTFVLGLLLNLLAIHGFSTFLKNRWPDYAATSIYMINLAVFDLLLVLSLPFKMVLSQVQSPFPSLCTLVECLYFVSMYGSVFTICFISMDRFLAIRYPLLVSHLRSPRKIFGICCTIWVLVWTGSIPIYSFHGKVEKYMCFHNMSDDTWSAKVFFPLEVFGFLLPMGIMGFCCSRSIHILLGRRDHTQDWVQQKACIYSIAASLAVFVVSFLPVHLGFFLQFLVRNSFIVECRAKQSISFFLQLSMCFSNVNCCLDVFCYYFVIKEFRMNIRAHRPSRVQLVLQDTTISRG

For CC[C@H](C)[C@H](NC(=O)[C@H](CC(=O)O)NC(=O)[C@@H](NC(=O)[C@H](Cc1ccc(O)cc1)NC(=O)[C@@H](NC(=O)CNC(=O)[C@H](CC(N)=O)NC(=O)[C@@H](NC(=O)[C@H](CC(C)C)NC(=O)[C@H](Cc1ccc(O)cc1)NC(=O)[C@H](CC(=O)O)NC(=O)[C@H](CC(C)C)NC(=O)[C@H](CCCNC(=N)N)NC(=O)[C@H](CO)NC(=O)[C@H](Cc1ccc(O)cc1)NC(=O)[C@H](CCCNC(=N)N)NC(=O)[C@@H](N)CCCCN)[C@@H](C)CC)[C@@H](C)CC)C(C)C)C(=O)O [114 resynthesized] (H-KRYSRLDYLINGIYVDI-OH), the EC50 (GPR55 [1]; [6]) was 3.89 µM and the EC50 (GPR55 [2]; [7]) was 15.8 µM.
With CC(C)C[C@H](NC(=O)[C@H](C)NC(=O)CNC(=O)[C@H](CC(C)C)NC(=O)[C@H](CCCNC(=N)N)NC(=O)[C@@H](N)CCCCN)C(=O)N[C@@H](Cc1ccccc1)C(=O)N[C@@H](CC(N)=O)C(=O)N1CCC[C@H]1C(=O)N[C@@H](Cc1ccc(O)cc1)C(=O)N[C@@H](Cc1ccccc1)C(=O)N[C@@H](CC(=O)O)C(=O)N1CCC[C@H]1C(=O)N[C@@H](CC(C)C)C(=O)N[C@@H](CCC(N)=O)C(=O)N[C@@H](Cc1c[nH]c2ccccc12)C(=O)N[C@@H](CCCCN)C(=O)N[C@@H](CC(N)=O)C(=O)N[C@@H](CO)C(=O)N[C@@H](CC(=O)O)C(=O)N[C@@H](Cc1ccccc1)C(=O)N[C@@H](CCC(=O)O)C(=O)O [143 resynthesized] (H-KRLGALFNPYFDPLQWKNSDFE-OH) the EC50 (GPR55 [1]; [6]) was 3.16 µM and the EC50 (GPR55 [2]; [7]) was 6.31 µM.
For CC[C@H](C)[C@H](NC(=O)CNC(=O)[C@H](CC(=O)O)NC(=O)[C@H](CO)NC(=O)[C@@H](N)Cc1cnc[nH]1)C(=O)N[C@@H](Cc1ccccc1)C(=O)N[C@H](C(=O)N[C@@H](CC(=O)O)C(=O)N[C@@H](CO)C(=O)N[C@@H](Cc1ccc(O)cc1)C(=O)N[C@@H](CO)C(=O)N[C@@H](CCCNC(=N)N)C(=O)N[C@@H](Cc1ccc(O)cc1)C(=O)N[C@@H](CCCNC(=N)N)C(=O)N[C@@H](CCCCN)C(=O)N[C@@H](CCC(N)=O)C(=O)N[C@@H](CCSC)C(=O)N[C@@H](C)C(=O)N[C@H](C(=O)N[C@@H](CCCCN)C(=O)N[C@@H](CCCCN)C(=O)N[C@@H](Cc1ccc(O)cc1)C(=O)N[C@@H](CC(C)C)C(=O)N[C@@H](C)C(=O)N[C@@H](C)C(=O)N[C@H](C(=O)N[C@@H](CC(C)C)C(=O)NCC(=O)N[C@@H](CCCCN)C(=O)N[C@@H](CCCNC(=N)N)C(=O)N[C@@H](Cc1ccc(O)cc1)C(=O)N[C@@H](CCCCN)C(=O)N[C@@H](CCC(N)=O)C(=O)N[C@@H](CCCNC(=N)N)C(=O)N[C@H](C(=O)N[C@@H](CCCCN)C(=O)N[C@@H](CC(N)=O)C(=O)N[C@@H](CCCCN)C(N)=O)C(C)C)C(C)C)C(C)C)[C@@H](C)O [168.1 (Phoenix)], the EC50 (GPR55 [1]; [6]) was 0.148 µM and the EC50 (GPR55 [2]; Internalization assays pEC50) was 0.000123 µM.
Molecule CC(C)C[C@H](NC(=O)[C@H](C)NC(=O)CNC(=O)[C@H](CC(C)C)NC(=O)[C@H](CCCNC(=N)N)NC(=O)[C@@H](N)CCCCN)C(=O)N[C@@H](Cc1ccccc1)C(=O)N[C@@H](CC(N)=O)C(=O)N1CCC[C@H]1C(=O)N[C@@H](Cc1ccc(O)cc1)C(=O)N[C@@H](Cc1ccccc1)C(=O)N[C@@H](CC(=O)O)C(=O)N1CCC[C@H]1C(=O)N[C@@H](CC(C)C)C(=O)N[C@@H](CCC(N)=O)C(=O)N[C@@H](Cc1c[nH]c2ccccc12)C(=O)N[C@@H](CCCCN)C(=O)N[C@@H](CC(N)=O)C(=O)N[C@@H](CO)C(=O)N[C@@H](CC(=O)O)C(=O)N[C@@H](Cc1ccccc1)C(=O)N[C@@H](CCC(=O)O)C(=O)O [Chgb (511-532)] (H-KRLGALFNPYFDPLQWKNSDFE-OH) has an EC50 (GPR55 [1]; [8]) of 2.4 µM and an EC50 (GPR55 [2]; [9]) of 4.68 µM.
For CC[C@H](C)[C@H](NC(=O)[C@H](CC(=O)O)NC(=O)[C@@H](NC(=O)[C@H](Cc1ccc(O)cc1)NC(=O)[C@@H](NC(=O)CNC(=O)[C@H](CC(N)=O)NC(=O)[C@@H](NC(=O)[C@H](CC(C)C)NC(=O)[C@H](Cc1ccc(O)cc1)NC(=O)[C@H](CC(=O)O)NC(=O)[C@H](CC(C)C)NC(=O)[C@H](CCCNC(=N)N)NC(=O)[C@H](CO)NC(=O)[C@H](Cc1ccc(O)cc1)NC(=O)[C@H](CCCNC(=N)N)NC(=O)[C@@H](N)CCCCN)[C@@H](C)CC)[C@@H](C)CC)C(C)C)C(=O)O [MANSC (415-431)] (H-KRYSRLDYLINGIYVDI-OH), the EC50 (GPR55 [1]; [8]) was 3.09 µM and the EC50 (GPR55 [2]; [9]) was 13.5 µM.
With CC(C)C[C@H](NC(=O)[C@H](CCCNC(=N)N)NC(=O)[C@@H](N)CCCCN)C(=O)NCC(=O)N[C@@H](CCC(=O)O)C(=O)N[C@@H](CC(C)C)C(=O)N[C@@H](Cc1ccccc1)C(=O)N[C@@H](CC(N)=O)C(=O)N1CCC[C@H]1C(=O)N[C@@H](Cc1ccc(O)cc1)C(=O)N[C@@H](Cc1ccc(O)cc1)C(=O)N[C@@H](CC(=O)O)C(=O)N1CCC[C@H]1C(=O)N[C@@H](CC(C)C)C(=O)N[C@@H](CCC(N)=O)C(=O)N[C@@H](Cc1c[nH]c2ccccc12)C(=O)N[C@@H](CCCCN)C(=O)N[C@@H](CO)C(=O)N[C@@H](CO)C(=O)N[C@@H](Cc1c[nH]cn1)C(=O)N[C@@H](Cc1ccccc1)C(=O)N[C@@H](CCC(=O)O)C(=O)O [Peptide 143.1] (H-KRLGELFNPYYDPLQWKSSHFE-OH) the EC50 (GPR55 [1]; [6]) was 25.1 µM.
CSCC[C@H](NC(=O)[C@H](CC(C)C)NC(=O)[C@H](Cc1cnc[nH]1)NC(=O)CNC(=O)[C@@H](NC(=O)[C@H](C)NC(=O)[C@H](Cc1c[nH]c2ccccc12)NC(=O)[C@H](Cc1cnc[nH]1)NC(=O)[C@H](CC(N)=O)NC(=O)CN)C(C)C)C(N)=O [Peptide 167.1] gave an EC50 (BB3 [3]) of 0.49 µM, an EC50 (BB3 [4]) of 14.5 µM and an EC50 (BB3 [5]) of 2.51 µM. For the same molecule, the EC50 (GPR1) was 22.9 µM.
